Laboratory results reported in the kinase profiling compilation of Christmann-Franck et al. (2016).

Assays:
Test in all cases: Caliper, Mobility shift assay off-chip
[1] = molecular target: PRKX (human) (UniProt P51817)
[2] = molecular target: PDGFRA (human) (UniProt P16234)
[3] = molecular target: AKT3 (human) (UniProt Q9Y243)
[4] = system: KIT (human), P10721 [V560G]
[5] = molecular target: TYRO3 (human) (UniProt Q06418)
[6] = molecular target: FLT1 (human) (UniProt P17948)
[7] = molecular target: CDK5 CDK5R1 p35 (human) (UniProt Q00535+Q15078)
[8] = molecular target: NUAK1 (human) (UniProt O60285)
[9] = molecular target: EPHA3 (human) (UniProt P29320)
[10] = molecular target: PHKG2 (human) (UniProt P15735)
[11] = molecular target: DYRK2 (human) (UniProt Q92630)
[12] = molecular target: HCK (human) (UniProt P08631)
[13] = molecular target: EPHB3 (human) (UniProt P54753)
[14] = molecular target: SRPK2 (human) (UniProt P78362)
[15] = molecular target: PTK2B (human) (UniProt Q14289)
[16] = molecular target: CAMK4 (human) (UniProt Q16566)
[17] = system: FGFR2 (human), P21802 [N549H]
[18] = molecular target: IRAK1 (human) (UniProt P51617)
[19] = system: PDGFRA (human), P16234 [V561D]
[20] = molecular target: MAPK1 (human) (UniProt P28482)
[21] = molecular target: PTK6 (human) (UniProt Q13882)
[22] = molecular target: AURKA (human) (UniProt O14965)
[23] = molecular target: EPHA8 (human) (UniProt P29322)
[24] = molecular target: TLK2 (human) (UniProt Q86UE8)
[25] = molecular target: EPHA7 (human) (UniProt Q15375)
[26] = molecular target: STK4 (human) (UniProt Q13043)
[27] = molecular target: CLK3 (human) (UniProt P49761)
[28] = molecular target: FES (human) (UniProt P07332)
[29] = molecular target: DAPK1 (human) (UniProt P53355)
[30] = molecular target: DDR2 (human) (UniProt Q16832)
[31] = molecular target: GSG2 (human) (UniProt Q8TF76)
[32] = molecular target: MAPKAPK3 (human) (UniProt Q16644)
[33] = molecular target: CSNK2A2 (human) (UniProt P19784)
[34] = molecular target: MAP3K5 (human) (UniProt Q99683)
[35] = molecular target: PDPK1 (human) (UniProt O15530)
[36] = molecular target: CAMK1 (human) (UniProt Q14012)
[37] = molecular target: HIPK2 (human) (UniProt Q9H2X6)
[38] = molecular target: DAPK2 (human) (UniProt Q9UIK4)
[39] = molecular target: FER (human) (UniProt P16591)
[40] = molecular target: TAOK2 (human) (UniProt Q9UL54)
[41] = molecular target: TNK2 (human) (UniProt Q07912); conditions: compound 10.0 µM

Chain of PDPK1 (human) (O15530 whole entry, looked up): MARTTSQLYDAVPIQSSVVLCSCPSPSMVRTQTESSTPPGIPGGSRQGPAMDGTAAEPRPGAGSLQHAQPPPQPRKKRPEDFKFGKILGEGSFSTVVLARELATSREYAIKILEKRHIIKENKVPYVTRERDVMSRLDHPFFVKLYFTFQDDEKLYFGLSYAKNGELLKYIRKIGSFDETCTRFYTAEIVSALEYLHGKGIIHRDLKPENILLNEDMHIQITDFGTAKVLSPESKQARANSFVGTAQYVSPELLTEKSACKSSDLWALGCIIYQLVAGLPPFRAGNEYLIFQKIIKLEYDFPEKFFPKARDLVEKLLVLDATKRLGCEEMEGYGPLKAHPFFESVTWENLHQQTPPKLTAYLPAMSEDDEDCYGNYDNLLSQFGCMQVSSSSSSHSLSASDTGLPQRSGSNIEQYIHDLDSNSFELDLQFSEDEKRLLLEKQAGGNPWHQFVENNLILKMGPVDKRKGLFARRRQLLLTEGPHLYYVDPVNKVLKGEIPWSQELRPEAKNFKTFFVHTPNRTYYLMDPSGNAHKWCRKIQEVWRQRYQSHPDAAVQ
Chain of MAPK1 (human) (P28482 whole entry, looked up): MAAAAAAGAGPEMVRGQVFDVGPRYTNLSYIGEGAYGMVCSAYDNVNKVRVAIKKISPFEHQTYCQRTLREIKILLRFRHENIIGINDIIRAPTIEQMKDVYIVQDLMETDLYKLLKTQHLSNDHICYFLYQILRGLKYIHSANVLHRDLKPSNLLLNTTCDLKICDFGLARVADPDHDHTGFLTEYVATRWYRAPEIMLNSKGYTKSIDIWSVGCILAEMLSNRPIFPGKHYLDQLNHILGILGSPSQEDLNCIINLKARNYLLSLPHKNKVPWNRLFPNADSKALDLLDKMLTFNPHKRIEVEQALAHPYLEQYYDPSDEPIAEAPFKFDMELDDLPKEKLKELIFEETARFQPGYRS
Chain of DDR2 (human) (Q16832 whole entry, looked up): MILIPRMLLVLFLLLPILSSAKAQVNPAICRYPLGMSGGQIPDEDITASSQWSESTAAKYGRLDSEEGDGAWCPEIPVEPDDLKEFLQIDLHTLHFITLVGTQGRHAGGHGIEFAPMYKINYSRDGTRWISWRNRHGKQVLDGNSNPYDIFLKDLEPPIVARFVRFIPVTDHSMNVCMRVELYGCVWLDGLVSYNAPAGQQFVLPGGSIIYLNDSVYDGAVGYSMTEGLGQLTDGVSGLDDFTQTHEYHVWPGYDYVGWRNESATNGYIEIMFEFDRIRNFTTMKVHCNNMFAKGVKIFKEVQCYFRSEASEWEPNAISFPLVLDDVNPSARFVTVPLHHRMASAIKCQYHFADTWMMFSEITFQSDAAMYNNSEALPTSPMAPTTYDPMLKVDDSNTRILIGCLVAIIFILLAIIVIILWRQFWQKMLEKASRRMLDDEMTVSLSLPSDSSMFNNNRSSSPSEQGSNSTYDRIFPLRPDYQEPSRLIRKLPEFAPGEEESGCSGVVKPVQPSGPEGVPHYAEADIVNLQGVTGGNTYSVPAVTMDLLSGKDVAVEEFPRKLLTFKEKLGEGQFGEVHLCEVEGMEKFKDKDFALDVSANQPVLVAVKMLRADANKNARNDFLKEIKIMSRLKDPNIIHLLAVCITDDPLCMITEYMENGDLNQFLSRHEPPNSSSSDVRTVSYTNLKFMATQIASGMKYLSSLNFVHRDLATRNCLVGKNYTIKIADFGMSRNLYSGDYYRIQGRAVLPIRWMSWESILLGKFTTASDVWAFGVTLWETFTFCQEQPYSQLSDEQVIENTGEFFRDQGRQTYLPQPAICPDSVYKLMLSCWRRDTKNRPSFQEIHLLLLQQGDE
Chain of DYRK2 (human) (Q92630 whole entry, looked up): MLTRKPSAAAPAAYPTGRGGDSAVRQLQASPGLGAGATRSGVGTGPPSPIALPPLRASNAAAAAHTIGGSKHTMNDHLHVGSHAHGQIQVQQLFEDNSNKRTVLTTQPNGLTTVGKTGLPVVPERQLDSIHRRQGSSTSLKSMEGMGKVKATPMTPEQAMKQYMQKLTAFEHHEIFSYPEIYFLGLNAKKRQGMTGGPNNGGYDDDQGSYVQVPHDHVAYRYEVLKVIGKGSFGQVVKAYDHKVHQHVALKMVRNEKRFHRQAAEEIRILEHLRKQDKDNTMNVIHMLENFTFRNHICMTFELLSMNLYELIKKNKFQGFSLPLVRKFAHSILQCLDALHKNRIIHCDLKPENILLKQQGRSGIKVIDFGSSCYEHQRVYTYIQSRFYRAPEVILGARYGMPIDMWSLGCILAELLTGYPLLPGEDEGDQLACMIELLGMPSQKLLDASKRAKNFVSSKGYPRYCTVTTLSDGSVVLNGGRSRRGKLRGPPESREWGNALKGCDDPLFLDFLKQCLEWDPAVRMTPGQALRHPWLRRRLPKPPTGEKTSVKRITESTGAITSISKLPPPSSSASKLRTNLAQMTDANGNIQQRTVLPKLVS
Chain of TYRO3 (human) (Q06418 whole entry, looked up): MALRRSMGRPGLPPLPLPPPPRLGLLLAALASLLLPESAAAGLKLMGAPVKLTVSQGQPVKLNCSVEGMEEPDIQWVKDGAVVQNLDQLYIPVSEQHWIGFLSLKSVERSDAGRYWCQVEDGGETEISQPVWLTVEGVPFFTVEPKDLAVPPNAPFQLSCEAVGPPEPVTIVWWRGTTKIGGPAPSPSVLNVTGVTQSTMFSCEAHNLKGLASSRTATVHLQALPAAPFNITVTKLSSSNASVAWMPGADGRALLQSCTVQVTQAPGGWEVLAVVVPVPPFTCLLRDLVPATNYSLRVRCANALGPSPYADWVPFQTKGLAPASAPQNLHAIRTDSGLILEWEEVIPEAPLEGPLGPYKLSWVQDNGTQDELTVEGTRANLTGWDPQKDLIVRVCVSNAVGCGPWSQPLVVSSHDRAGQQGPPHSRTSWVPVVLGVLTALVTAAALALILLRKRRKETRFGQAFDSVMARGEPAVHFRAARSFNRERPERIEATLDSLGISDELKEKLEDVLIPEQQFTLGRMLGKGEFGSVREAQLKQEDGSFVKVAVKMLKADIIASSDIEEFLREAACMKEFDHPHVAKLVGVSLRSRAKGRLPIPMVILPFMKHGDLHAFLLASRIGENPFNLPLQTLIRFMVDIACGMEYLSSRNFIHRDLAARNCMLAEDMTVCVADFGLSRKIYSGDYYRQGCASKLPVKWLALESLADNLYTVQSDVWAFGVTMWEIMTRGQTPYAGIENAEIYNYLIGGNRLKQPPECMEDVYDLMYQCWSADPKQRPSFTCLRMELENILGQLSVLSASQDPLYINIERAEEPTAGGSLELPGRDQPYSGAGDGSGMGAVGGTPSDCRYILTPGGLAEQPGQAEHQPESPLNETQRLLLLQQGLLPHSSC
Chain of FER (human) (P16591 whole entry, looked up): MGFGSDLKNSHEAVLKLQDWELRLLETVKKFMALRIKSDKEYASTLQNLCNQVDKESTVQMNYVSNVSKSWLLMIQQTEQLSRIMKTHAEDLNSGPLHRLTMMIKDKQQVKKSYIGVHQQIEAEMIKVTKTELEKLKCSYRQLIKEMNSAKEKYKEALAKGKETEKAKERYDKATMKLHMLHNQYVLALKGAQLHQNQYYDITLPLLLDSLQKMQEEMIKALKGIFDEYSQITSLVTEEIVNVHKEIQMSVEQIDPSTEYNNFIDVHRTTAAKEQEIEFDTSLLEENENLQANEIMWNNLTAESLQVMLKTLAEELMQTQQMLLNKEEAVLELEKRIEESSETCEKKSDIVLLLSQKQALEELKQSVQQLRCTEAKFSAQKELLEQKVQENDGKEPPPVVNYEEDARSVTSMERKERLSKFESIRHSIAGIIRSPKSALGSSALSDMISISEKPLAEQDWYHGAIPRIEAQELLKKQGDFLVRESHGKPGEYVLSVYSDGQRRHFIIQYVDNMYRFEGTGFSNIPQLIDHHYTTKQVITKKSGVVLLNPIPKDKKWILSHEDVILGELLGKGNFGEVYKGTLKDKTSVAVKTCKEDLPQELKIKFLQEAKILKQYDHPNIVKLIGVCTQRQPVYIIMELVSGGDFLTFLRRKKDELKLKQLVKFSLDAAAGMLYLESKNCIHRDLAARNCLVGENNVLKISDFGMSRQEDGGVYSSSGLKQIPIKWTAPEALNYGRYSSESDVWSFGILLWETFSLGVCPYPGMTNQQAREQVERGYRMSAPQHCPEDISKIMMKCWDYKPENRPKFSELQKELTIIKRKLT
Chain of DAPK2 (human) (Q9UIK4 whole entry, looked up): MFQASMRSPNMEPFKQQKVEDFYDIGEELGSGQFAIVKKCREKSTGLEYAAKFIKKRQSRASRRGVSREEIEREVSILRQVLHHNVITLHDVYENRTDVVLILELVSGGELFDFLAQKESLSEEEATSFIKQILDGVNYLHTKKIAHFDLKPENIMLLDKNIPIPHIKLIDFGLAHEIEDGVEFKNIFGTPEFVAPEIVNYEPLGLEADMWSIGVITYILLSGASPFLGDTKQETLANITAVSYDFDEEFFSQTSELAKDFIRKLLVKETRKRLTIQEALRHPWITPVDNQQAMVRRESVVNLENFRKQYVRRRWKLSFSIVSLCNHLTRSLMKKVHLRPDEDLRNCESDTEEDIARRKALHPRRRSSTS
Chain of AURKA (human) (O14965 whole entry, looked up): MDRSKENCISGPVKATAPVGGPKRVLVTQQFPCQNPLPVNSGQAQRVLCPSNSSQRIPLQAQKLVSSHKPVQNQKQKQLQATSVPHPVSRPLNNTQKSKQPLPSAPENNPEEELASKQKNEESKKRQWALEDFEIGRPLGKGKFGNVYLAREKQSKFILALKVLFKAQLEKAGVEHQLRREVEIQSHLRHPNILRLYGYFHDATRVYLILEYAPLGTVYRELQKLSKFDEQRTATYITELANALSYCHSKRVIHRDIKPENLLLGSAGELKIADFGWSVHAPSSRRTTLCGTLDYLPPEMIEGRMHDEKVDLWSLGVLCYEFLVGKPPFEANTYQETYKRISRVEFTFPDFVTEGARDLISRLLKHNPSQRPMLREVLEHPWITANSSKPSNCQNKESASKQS

O=C(NCCCNc1nc(Nc2cccc(NC(=O)N3CCCC3)c2)ncc1I)c1cccs1
residual activity ([1]; compound 1.0 µM): 70%
residual activity ([2]; compound 1.0 µM): 86%
residual activity ([3]; compound 1.0 µM): 103%
residual activity ([4]; compound 1.0 µM): 15%
residual activity ([5]; compound 1.0 µM): 84%
residual activity ([6]; compound 1.0 µM): 14%
residual activity ([7]; compound 1.0 µM): 47%
residual activity ([8]; compound 1.0 µM): 8%
residual activity ([9]; compound 1.0 µM): 114%
residual activity ([10]; compound 1.0 µM): 74%
residual activity ([11]; compound 1.0 µM): 97%
residual activity ([12]; compound 1.0 µM): 99%
residual activity ([13]; compound 1.0 µM): 93%
residual activity ([14]; compound 1.0 µM): 99%
residual activity ([15]; compound 1.0 µM): 85%
residual activity ([16]; compound 1.0 µM): 102%
residual activity ([17]; compound 1.0 µM): 50%
residual activity ([18]; compound 1.0 µM): 99%
residual activity ([19]; compound 1.0 µM): 14%
residual activity ([20]; compound 1.0 µM): 104%
residual activity ([21]; compound 1.0 µM): 97%
residual activity ([22]; compound 1.0 µM): 0%
residual activity ([23]; compound 1.0 µM): 106%
residual activity ([24]; compound 1.0 µM): 91%
residual activity ([25]; compound 1.0 µM): 131%
residual activity ([26]; compound 1.0 µM): 91%
residual activity ([27]; compound 1.0 µM): 101%
residual activity ([28]; compound 1.0 µM): 96%
residual activity ([29]; compound 1.0 µM): 91%
residual activity ([30]; compound 1.0 µM): 113%
residual activity ([31]; compound 1.0 µM): 87%
residual activity ([32]; compound 1.0 µM): 107%
residual activity ([33]; compound 1.0 µM): 109%
residual activity ([34]; compound 1.0 µM): 65%
residual activity ([35]; compound 1.0 µM): 5%
residual activity ([36]; compound 1.0 µM): 97%
residual activity ([37]; compound 1.0 µM): 93%
residual activity ([38]; compound 1.0 µM): 100%
residual activity ([39]; compound 1.0 µM): 129%
residual activity ([40]; compound 1.0 µM): 37%

CC(C)(C)c1nc2c3ccc(F)cc3c3c(=O)[nH]ccc3c2[nH]1
residual activity ([20]; compound 10.0 µM): 33%
residual activity [41]: 66%
residual activity ([35]; compound 10.0 µM): 0%

COc1ccc(C#Cc2ccc3ncc4ncn(-c5ccc(CCN)cc5)c4c3c2)cc1
residual activity ([1]; compound 10.0 µM): 91%
residual activity ([2]; compound 10.0 µM): 79%
residual activity ([3]; compound 10.0 µM): 26%
residual activity ([4]; compound 10.0 µM): 18%
residual activity ([5]; compound 10.0 µM): 19%
residual activity ([6]; compound 10.0 µM): 6%
residual activity ([7]; compound 10.0 µM): 98%
residual activity ([8]; compound 10.0 µM): 66%
residual activity ([9]; compound 10.0 µM): 86%
residual activity ([10]; compound 10.0 µM): 33%
residual activity ([11]; compound 10.0 µM): 86%
residual activity ([12]; compound 10.0 µM): 63%
residual activity ([13]; compound 10.0 µM): 113%
residual activity ([14]; compound 10.0 µM): 96%
residual activity ([15]; compound 10.0 µM): 47%
residual activity ([16]; compound 10.0 µM): 69%
residual activity ([17]; compound 10.0 µM): 11%
residual activity ([18]; compound 10.0 µM): 58%
residual activity ([19]; compound 10.0 µM): 10%
residual activity ([20]; compound 10.0 µM): 133%
residual activity ([21]; compound 10.0 µM): 81%
residual activity ([22]; compound 10.0 µM): 8%
residual activity ([23]; compound 10.0 µM): 91%
residual activity ([24]; compound 10.0 µM): 106%
residual activity ([25]; compound 10.0 µM): 118%
residual activity ([26]; compound 10.0 µM): 40%
residual activity ([27]; compound 10.0 µM): 65%
residual activity ([28]; compound 10.0 µM): 69%
residual activity ([29]; compound 10.0 µM): 50%
residual activity ([30]; compound 10.0 µM): 57%
residual activity ([31]; compound 10.0 µM): 0%
residual activity ([32]; compound 10.0 µM): 84%
residual activity ([33]; compound 10.0 µM): 90%
residual activity ([34]; compound 10.0 µM): 77%
residual activity ([35]; compound 10.0 µM): 43%
residual activity ([36]; compound 10.0 µM): 9%
residual activity ([37]; compound 10.0 µM): 63%
residual activity ([38]; compound 10.0 µM): 85%
residual activity ([39]; compound 10.0 µM): 14%
residual activity ([40]; compound 10.0 µM): 81%

Cc1n[nH]c2c1c(=O)n(CCCN)c1ccc(Cl)cc21
residual activity ([2]; compound 1.0 µM): 110%
residual activity ([3]; compound 1.0 µM): 90%
residual activity ([5]; compound 1.0 µM): 111%
residual activity ([6]; compound 1.0 µM): 86%
residual activity ([8]; compound 1.0 µM): 4%
residual activity ([9]; compound 1.0 µM): 99%
residual activity ([11]; compound 1.0 µM): 99%
residual activity ([12]; compound 1.0 µM): 148%
residual activity ([13]; compound 1.0 µM): 136%
residual activity ([14]; compound 1.0 µM): 108%
residual activity ([15]; compound 1.0 µM): 21%
residual activity ([16]; compound 1.0 µM): 61%
residual activity ([21]; compound 1.0 µM): 93%
residual activity ([22]; compound 1.0 µM): 104%
residual activity ([26]; compound 1.0 µM): 32%
residual activity ([28]; compound 1.0 µM): 41%
residual activity ([30]; compound 1.0 µM): 107%
residual activity ([32]; compound 1.0 µM): 105%
residual activity ([34]; compound 1.0 µM): 117%
residual activity ([35]; compound 1.0 µM): 3%
residual activity ([36]; compound 1.0 µM): 45%
residual activity ([37]; compound 1.0 µM): 105%
residual activity ([38]; compound 1.0 µM): 90%
residual activity ([39]; compound 1.0 µM): 104%
